Earlier results as cited in patent US20240050514A1, “USE OF COMPOUND, PHARMACEUTICAL COMPOSITION FOR THE TREATMENT OF IMMUNE OR METABOLIC DISORDERS, PHARMACEUTICAL COMPOSITION FOR THE TREATMENT OF ILLNESSES CAUSED BY OR ASSOCIATED WITH VIRUSES” (PROTEIMAX BIOTECNOLOGIA LTDA., priority 2021, published 2024).

Legend:
ACE = ACE (Homo sapiens, UniProt P12821); conditions: read-out: inhibition constant Ki
[1] = in vivo

Chain of ACE (P12821 30-1306, species assumed): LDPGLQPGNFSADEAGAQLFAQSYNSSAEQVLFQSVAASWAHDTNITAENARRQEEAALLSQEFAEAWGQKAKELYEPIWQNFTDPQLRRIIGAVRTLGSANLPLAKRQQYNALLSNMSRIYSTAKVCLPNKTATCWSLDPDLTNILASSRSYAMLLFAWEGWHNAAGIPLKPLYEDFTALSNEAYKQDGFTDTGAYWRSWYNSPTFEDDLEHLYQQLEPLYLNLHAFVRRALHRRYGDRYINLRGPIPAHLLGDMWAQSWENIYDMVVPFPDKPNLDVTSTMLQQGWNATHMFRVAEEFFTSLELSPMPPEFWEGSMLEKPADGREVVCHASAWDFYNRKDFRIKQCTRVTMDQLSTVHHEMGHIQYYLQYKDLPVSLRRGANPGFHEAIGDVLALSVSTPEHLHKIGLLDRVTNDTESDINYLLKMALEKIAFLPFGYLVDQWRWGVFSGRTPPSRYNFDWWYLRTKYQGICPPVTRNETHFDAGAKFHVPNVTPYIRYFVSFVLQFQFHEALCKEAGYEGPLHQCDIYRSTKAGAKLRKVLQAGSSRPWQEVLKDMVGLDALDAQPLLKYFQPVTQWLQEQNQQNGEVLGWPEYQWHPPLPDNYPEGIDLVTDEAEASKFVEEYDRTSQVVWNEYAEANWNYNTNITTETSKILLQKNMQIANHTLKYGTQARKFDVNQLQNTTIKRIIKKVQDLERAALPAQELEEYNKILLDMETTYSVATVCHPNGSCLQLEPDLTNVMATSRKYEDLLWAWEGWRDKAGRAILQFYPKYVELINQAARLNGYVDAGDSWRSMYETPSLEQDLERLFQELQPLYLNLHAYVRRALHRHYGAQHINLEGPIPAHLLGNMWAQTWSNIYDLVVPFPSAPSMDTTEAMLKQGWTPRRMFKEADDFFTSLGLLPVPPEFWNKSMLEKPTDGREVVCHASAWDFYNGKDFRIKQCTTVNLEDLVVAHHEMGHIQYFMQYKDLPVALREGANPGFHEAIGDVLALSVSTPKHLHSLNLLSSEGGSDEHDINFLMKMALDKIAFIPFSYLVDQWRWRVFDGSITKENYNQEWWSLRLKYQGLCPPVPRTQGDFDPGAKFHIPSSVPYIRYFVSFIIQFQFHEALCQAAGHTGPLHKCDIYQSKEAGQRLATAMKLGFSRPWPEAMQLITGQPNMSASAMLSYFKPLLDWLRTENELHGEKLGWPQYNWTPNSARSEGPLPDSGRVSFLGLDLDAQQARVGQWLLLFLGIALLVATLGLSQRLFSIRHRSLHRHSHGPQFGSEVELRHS

CC(C)C[C@H](NC(=O)[C@H](Cc1ccccc1)NC(=O)[C@H](CCCCN)NC(=O)[C@H](Cc1ccccc1)NC(=O)[C@H](CC(N)=O)NC(=O)[C@@H](NC(=O)[C@@H]1CCCN1)C(C)C)C(=O)N[C@@H](CO)C(=O)N[C@@H](Cc1cnc[nH]1)C(=O)O [hemopressin, PVNFKFLSH]
Ki (ACE): 1.87 mM
basal levels of monoamine in the prefrontal cortex (rats): reduction in the basal levels of monoamine in the prefrontal cortex
behavior after administration (rats): induced anxiogenic and depressive behavior
crossing of the blood-brain barrier [1]: does not cross the blood-brain barrier
